Results published in ChEMBL document CHEMBL3244211, “5-Carboxamido-4-amino-3-isoxazolidone, and asparagine analogue” (J Med Chem, 1978).
The source made the active and inactive calls. The calls are words filed in the database; no cut-off is given here.

Experiments:
[1] = system: L1210; experiment: Antitumor activity against mouse L1210 cells allografted in BDF1 mouse assessed as increase of host survival time at 100 mg/kg, ip; assay type: functional
[2] = system: Mus musculus; experiment: Toxicity in mouse P388 cells allografted BDF1 mouse assessed as mortality at 200 mg/kg, ip qd for 9 days; assay type: organism-based; parameters: dose 200 mg/kg, route intraperitoneal; settings: in vivo, 216 h
[3] = system: P388; experiment: Antitumor activity against mouse P388 cells allografted in BDF1 mouse assessed as increase of host survival time at 200 mg/kg, ip qd for 9 days; assay type: functional
[4] = target: T1, Asparagine synthetase [glutamine-hydrolyzing] (Rattus norvegicus) (UniProt P49088); experiment: Inhibition of asparagine synthetase in rat Novikoff hepatoma
T1 sequence (whole entry): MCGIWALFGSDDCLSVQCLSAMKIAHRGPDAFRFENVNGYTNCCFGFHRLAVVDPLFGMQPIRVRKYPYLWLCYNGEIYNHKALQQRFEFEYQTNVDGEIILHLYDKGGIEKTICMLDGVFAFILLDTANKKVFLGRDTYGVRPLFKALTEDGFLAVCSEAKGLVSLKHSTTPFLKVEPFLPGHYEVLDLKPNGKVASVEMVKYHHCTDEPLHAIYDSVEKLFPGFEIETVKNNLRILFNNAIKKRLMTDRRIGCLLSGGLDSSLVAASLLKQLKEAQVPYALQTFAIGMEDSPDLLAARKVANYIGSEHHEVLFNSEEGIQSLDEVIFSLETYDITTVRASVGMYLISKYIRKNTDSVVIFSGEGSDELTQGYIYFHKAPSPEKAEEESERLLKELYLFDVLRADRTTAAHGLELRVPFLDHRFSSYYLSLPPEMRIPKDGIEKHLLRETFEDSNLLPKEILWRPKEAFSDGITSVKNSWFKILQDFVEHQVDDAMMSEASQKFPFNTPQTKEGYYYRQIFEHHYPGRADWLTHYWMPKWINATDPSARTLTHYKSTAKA

SMILES | Activity ([1]; route intraperitoneal) [%] | Activity [2] | T/C ([3]; route intraperitoneal) [%] | Activity [1] | inhibition [4] | Activity [3]
O=C(NO)[C@H]1N[C@@H]1C(=O)NO (relative stereo) | 13 | Non-toxic | 128 | – | – | –
NC(=O)[C@H]1ONC(=O)[C@@H]1N (relative stereo) | – | Non-toxic | – | inactive | inactive | inactive
